# In patent US9623031B2, “Compositions, methods and kits for treating cancer” (priority 2011, dated 2017):
# Tests used:
# [1] = test system: FV-LSCs (M34^+Kit^+Sca1^+); assay: Apoptosis of FV-LSCs treated ex vivo (annexin V, flow cytometry); format: cell-based, mouse; details: 36 h
# Experimental: (§1) Apoptosis of LSCs was performed using annexin V as described below in Supplementary Information and Methods.
# On day 14 after infection, spleens were isolated and a single cell suspension of spleen cells was generated. The cells were filtered through a 70 μm sterile filter and flow-through cells were resuspended in RBC lysis buffer followed by centrifugation. Leukemia stem cells were isolated by FACS. Spleen cells were labeled with anti-Kit, Sca1 (BioLegend, San Diego, Calif.) and M34 antibodies. […] As indicated M34^+Kit^+Sca1^+ cells were cultured in Methocult media (Stem Cell Technologies Vancouver BC) M3334 supplemented with 200 ng/ml Sonic Hedgehog (Shh), 15 ng/ml bone morphogenetic protein-4 (BMP4) (both from R&D Systems Minneapolis, Minn.), and 50 ng/ml stem cell factor (SCF; Peprotech).
# (§2) The LSCs were diluted in DMEM, resuspended using a 16-gauge needle, and collected by centrifugation. 1×10^5 cells were resuspended in 200 μl of binding buffer (0.1 M HEPES with 1.4 M NaCl, 25 mM CaCl2, pH 7.4). Annexin V FITC (BD Biosciences) was incubated with cells for 15 min on ice followed by flow cytometric analysis.
# The cells were stained with annexin V-FITC and analyzed by flow cytometry. […] Means±s.e.m. *P<0.001 compared to vehicle (PBS). […] Inset: Effect of rosiglitazone on the apoptosis of LSC. Rosiglitazone (0.1-2.0 μM) was incubated with LSC in the culture media for 36 h as described earlier and the cells were subjected to annexin-V staining followed by flow cytometry. […] LSC were treated ex vivo with indicated concentrations of each compound for 36 h. Mean±s.e.m. shown *P<0.001.
# LSCs = assay: Apoptosis of LSCs as summarised in the discussion (model not specified or both models); format: cell-based, mouse
# Experimental: as §1, §2
# [2] = test system: Friend virus (FV)-induced erythroleukemia; assay: FV-induced erythroleukemia in FV-infected mice, intraperitoneal treatment; format: in vivo, mouse
# Source text: FV-induced erythroleukemia and production of FV leukemia stem cells (FV-LSCs): BALB/c mice were infected with FV as previously described (Subramanian A et al., J Virol. 2008; 82:382-393; Harandi O F et al., J Clin Invest. 2010; 120:4507-4519). On day 14 after infection, spleens were isolated and a single cell suspension of spleen cells was generated. The cells were filtered through a 70 μm sterile filter and flow-through cells were resuspended in RBC lysis buffer followed by centrifugation. Leukemia stem cells were isolated by FACS. Spleen cells were labeled with anti-Kit, Sca1 (BioLegend, San Diego, Calif.) and M34 antibodies. M34 is a monoclonal antibody that recognizes the envelope protein of SFFV (Chesebro B et al., Virology. 1981; 112:131-144) and was used as previously described (Subramanian A et al., J Virol. 2008; 82:382-393). As indicated M34^+Kit^+Sca1^+ cells were cultured in Methocult media (Stem Cell Technologies Vancouver BC) M3334 supplemented with 200 ng/ml Sonic Hedgehog (Shh), 15 ng/ml bone morphogenetic protein-4 (BMP4) (both from R&D Systems Minneapolis, Minn.), and 50 ng/ml stem cell factor (SCF; Peprotech). For CFU-FV assays, cells were plated in methylcellulose media containing fetal calf serum, but lacking added growth factors as previously described (Mager D L et al., Proc Natl Acad Sci USA. 1981; 78:1703-1707).
# Complete blood counts of mice treated with Δ^12-PGJ3 (0.05 mg/kg) were examined. There is no difference in treated mice and untransplanted control mice in terms of white blood cell counts, red blood cell counts or platelet counts. Changes in hematological parameters in FV-infected mice upon treatment with CyPGs were examined. FV-infected Balb/c mice were treated with Δ^12-PGJ3 (0.05 mg/kg) intraperitoneally for 7 d following which the mice were sacrificed and hematological parameters were analyzed on an Advia blood analyzer. FV-infected Δ^12-PGJ3 treated mice were compared to infected vehicle controls. N=5 per group, all data are means±s.e.m. *P<0.05. 3% w/v hydroxypropyl-3-cyclodextrin was used as a vehicle in in vivo experiments. Spleen sizes of FV-infected mice that were treated with either vehicle, 9,10-dihydro-15d-PGJ2 (0.05 mg/kg), or 15d-PGJ2 (0.05 mg/kg) were examined; N=3 pre group. Hematological parameters of Balb/c uninfected, infected, and 15d-PGJ2 treated mice were examined. N=5 per group. All data were means±s.e.m. *P<0.05.
# FV-LSC were targeted by 15d-PGJ2 in the spleen of FV-infected mice. FV-infected mice were treated with 15d-PGJ2 or 9,10-dihydro-15d-PGJ2 at 0.05 mg/kg for 7 d. The splenic LSC (M34^+Sca1^+Kit^+) cells were analyzed by flow cytometry on day 14 post infection. […] Uninfected and infected vehicle controls were used for comparison. N=3; *P<0.05. […] The colonies were counted 10-14 days after plating. N=3 mice per group, *p<0.05.
# p53 = p53 expression in FV-LSCs treated ex vivo (RT-PCR, nuclear extracts); format: cell-based, mouse; details: 12 h
# [3] = target: T1, ligand-binding domain of human PPAPγ fused to yeast GAL4 DNA binding domain (Homo sapiens, UniProt P37231); assay: PPARγ reporter assay in HEK293T cells (GAL4 fusion, pGalRE-Luc); format: cell-based; details: 0.01 μM to 1.0 μM
# T1 construct: expressed in transfected cells; host or cells: HEK293T
# [4] = test system: imatinib-resistant BCR-ABL(GFP)+ cells; assay: Imatinib-resistant BCR-ABL(GFP)+ LSCs treated ex vivo; format: cell-based, mouse; details: splenocytes after imatinib i.p. 1 wk and 1 week washout; 25 nM, 24 h
# Experimental: FIG. 8 is a graph showing that imatinib-resistant BCR-ABL(GFP)+ cells are targeted by Δ^12-PGJ3. […] The mice were followed for the development of leukemia. Mice that developed leukemia were euthanized and spleens were used as the source of LSCs.
# GFP+ LSCs were analyzed by flow cytometry.
# MCL-1 = MCL-1 expression in primary AML cells (real time PCR); format: cell-based, human
# Experimental: MCL-1 expression in Δ^12-PGJ3 treated AML was examined. MCL-1 is an antiapoptotic gene that belongs to the Bcl-2 family. Total RNA and cDNA were isolated from primary AML cells as indicated above. MCl-1 expression was measured using real time PCR. (Hs01050896-ml, Applied Biosystems).
# [5] = test system: FV-LSCs transplanted into BALB/c-Stk^−/− mice
# Experimental: Transplant of FV-LSCs into BALB/c-Stk^−/− mice: FV-LSCs were generated as described above. 2.5×10^5 FV-LSCs were transplanted into BALB/c-Stk^−/− mice by retro-orbital injection. Six weeks after transplant the mice were treated with CyPGs or vehicle control as indicated in the text.
# Treatment of Mice with PGs: Mice with FV-induced erythroleukemia or MIGR-BCR-ABL induced CML were treated on the indicated days with CyPGs. Mice were treated with a daily intraperitoneal injection of Δ^12-PGJ3 (0.01-0.1 mg/kg), 15d-PGJ2 (0.1 mg/kg), or 9,10-dihydro-15d-PGJ2 (0.1 mg/kg) for 7 days. All three compounds were formulated with hydroxypropyl-β-cyclodextrin (30% w/v; Sigma; vehicle control).
# Stk^−/− mice are resistant to Friend virus infection so the leukemia developed by the transplanted mice is result of the transplanted LSCs and not FV infection. […] LSCs sorted from the spleens of FV-infected mice were transplanted into Stk^−/− mice (on a Balb/c background). After 6 weeks such mice were treated daily for 1 week with vehicle (hydroxypropyl-β-cyclodextrin), 15d-PGJ2 (0.05 mg/kg), or 9,10-dihydro-15d-PGJ2 (0.05 mg/kg) by intraperitoneal injection. The mice were sacrificed 51 days post LSC transplantation for analysis. An analysis of spleens of mice comparing splenomegaly in vehicle, 15d-PGJ2, or 9,10-dihydro-15d-PGJ2 treated transplanted mice was performed. Spleen weight compared to control (untransplanted mice) after treatment and WBC counts in the peripheral blood of the mice after treatment were examined, and a flow cytometric analysis of the spleen of untransplanted and LSC transplanted mice after treatment was performed. All data were mean±s.e.m. *p<0.05 compared to control or 9,10-dihydro-15d-PGJ2 treated groups. N=5 per group.
# T1 sequence (P37231 238-503 limits assumed): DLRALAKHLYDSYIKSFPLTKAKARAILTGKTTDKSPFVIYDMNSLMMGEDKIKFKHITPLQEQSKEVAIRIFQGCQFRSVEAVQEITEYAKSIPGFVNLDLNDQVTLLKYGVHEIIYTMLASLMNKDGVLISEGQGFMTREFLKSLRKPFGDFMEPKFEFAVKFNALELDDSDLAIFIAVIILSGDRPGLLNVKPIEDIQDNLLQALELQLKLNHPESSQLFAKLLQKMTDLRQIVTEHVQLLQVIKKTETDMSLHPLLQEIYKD
compound,measurement,setting,value
"CC/C=C\C[C@H](O)C/C=C1/C(=O)C=C[C@@H]1C/C=C\CCCC(=O)O [Δ^12-PGJ3, Δ^12-prostaglandin J3]",increase in apoptosis of FV-LSCs,[1]; 25 nM,~75%
same,"apoptosis of FV-LSCs, dose response",[1]; annexin V,identical effect
same,targeting of LSCs for apoptosis,LSCs; FV-induced leukemia and BCR-ABL+ retrovirus-based murine CML model,targeted LSCs for apoptosis
same,IC50,"LSCs; LSC type not specified, read-out: IC50, concentration required to cause apoptosis of LSCs",7 nM
same,reduction of splenomegaly,[2]; 0.01 mg/kg/day i.p. for 7 days,~50%
same,LSCs (Sca1+Kit+M34+) in the spleen,"[2]; 0.05 mg/kg i.p. 7 d, flow cytometry day 14 post infection",completely eradicated
same,splenomegaly,[2]; 0.05 and 0.1 mg/kg/day i.p. for 7 days from day 7 post infection,no signs of splenomegaly
same,spleen histology (H&E),[2]; day 14 post infection,better demarcation of peri-arteriolar lymphoid tissue
same,total leukocyte and reticulocyte counts,[2]; i.p. 7 days,decreased to normal levels
same,Bax expression in spleen,"[2]; mouse, in vivo",activation of Bax expression
same,Friend virus viral replication,"[2]; mouse, in vivo",not the viral replication
same,TUNEL staining of splenic sections,"[2]; mouse, in vivo",increased apoptosis
same,CFU-FV colony formation,[2]; spleen cells of treated mice plated without growth factors,completely reduced to background levels
same,p53 expression in total spleen,[2]; treated for 1 week,significant expression of p53 in the spleen
same,p53 expression at transcript level,p53; 10 or 25 nM,significant upregulation of p53 expression
same,nuclear levels of p53 protein,p53; sorted LSC,increase in the nuclear levels of p53 protein
same,PPARγ activation in reporter assay,[3],unable to activate PPARγ
same,targeting of imatinib-resistant GFP+ LSCs,[4],can even target LSCs that are resistant to imatinib treatment
same,MCL-1 expression,MCL-1,decreases the expression MCL1
same,leukocyte counts,"[5]; 0.025 mg/kg and 0.05 mg/kg, 1 week",concomitant decrease in leukocyte counts
same,"hematocrit, WBC counts and reticulocyte counts","[5]; FV-induced leukemia, FIG. 3C",significantly decreased
same,LSCs (M34+Sca1+Kit+) in the spleen,[5]; flow cytometry after 1 week i.p. treatment,complete ablation
same,hematological parameters (complete blood counts) versus untransplanted control mice,"[5]; mouse, in vivo",does not adversely affect hematological parameters
same,pChk2 levels in total spleen extracts,"[5]; mouse, in vivo",increase in the levels of pChk2
same,splenomegaly,"[5]; Δ^12-PGJ3 0.025 and 0.05 mg/kg, comparators 0.05 mg/kg, i.p. 1 week",significantly decreased splenomegaly
